Data taken from patent publication EP4635952A1, “SOLID FORM OF N-SUBSTITUTED PHENYLSULFONAMIDE COMPOUND” (Shanghai Leado Pharmatech Co. Ltd., priority 2022, dated 2024).
Where a name gives a salt, the structure may show the parent alone. Read-outs that look alike come from different tables or passages of the source.

Key:
Type in all cases: physicochemical
[1] = Hygroscopicity by dynamic moisture absorption (DVS); settings: 25°C/80% RH; for moisture adsorption: DVS, 0% RH-95% RH adsorption curve; for hygroscopicity classification: criteria of 2015 edition of the Chinese Pharmacopoeia (Guidelines for Drug Hygroscopicity Test)
Method: Dynamic moisture adsorption (DVS) analysis: the instrument is a DVS Intrinsic produced by SMS company (Surface Measurement Systems); temperature, 25° C.; carrier gas, flow rate: nitrogen, 200 mL/min; mass change per unit time: 0.002%/min; relative humidity range: 0%RH-95%RH.
Dynamic moisture absorption (DVS) was used to test their hygroscopicity.

[2] = Solid-state stability (HPLC purity and XRPD crystal form on storage); settings: for Purity (area %) / Initial purity (area %): HPLC; for Initial purity (area %): starting sample before storage
Method: About 10 mg of each solid form of the compound was weighed and added to the HPLC vial, respectively, the bottleneck was sealed with a sealing film, and 10 small holes were made on the film. The vial was placed in 25° C/60% RH and 40° C/75% RH environment for 4 weeks, samples were taken in the 1st week, the 2rd week and the 4th week respectively, the purity (by HPLC analysis) and crystal form (by X ray powder diffraction analysis) of the sample were investigated. […]

[3] = Approximate solubility in purified water
Method: To determine the approximate solubility, the corresponding solid form sample was added to a 3 mL glass vial. Purified water was incrementally introduced (50, 50, 200, and 700 µL) while vortexing and ultrasonically agitating to facilitate dissolution. […] Solvent addition was halted either when full dissolution was achieved or when the total water volume reached 1 mL. The approximate solubility was then calculated based on the final solvent volume used.

[4] = Dynamic solubility in biorelevant media SGF, FaSSIF or water; settings: 37°C, dosed at 10 mg/mL, 1-24 hours, Figure 31
Method: The dynamic solubility of fumarate crystal form B, hydrochloride crystal form C, sulfate crystal form D, succinate crystal form E, malate crystal form F, and free crystal form A was assessed at 37°C in biorelevant media SGF, FaSSIF or water. All samples were dosed at 10 mg/mL in each solvent. The samples were sealed and mounted on a rotating disk rotating at 25 rpm, and the rotating disk was placed in a 37° C. incubator. Samples were taken at time points 1, 2, 4, and 24 hours of equilibration, and the filtrate was separated and tested concentration by HPLC and pH, while isolated solids were characterized by XRPD.

[5] = 25°C/60% RH and 40°C/75% RH, 4 weeks

Structure (SMILES)	moisture adsorption [1]	hygroscopicity classification [1]	Purity (area %) ([2]; 25°C /60%RH/open, 1 week)	Purity (area %) ([2]; 25°C /60%RH/open, 2 weeks)	Purity (area %) ([2]; 25°C /60%RH/open, 4 weeks)	Purity (area %) ([2]; 40°C /75%RH/open, 1 week)	Purity (area %) ([2]; 40°C /75%RH/open, 2 weeks)	Purity (area %) ([2]; 40°C /75%RH/open, 4 weeks)	Initial purity (area %) [2]	Solubility [3]	dynamic solubility ([4]; FaSSIF)	dynamic solubility ([4]; water)	HPLC purity [2, 5]	crystal form (XRPD) before and after placement [2, 5]	Solubility ([3]; listed as Free form crystal A)
CNCc1ccc(NS(=O)(=O)c2ccsc2)c(-c2ccco2)c1 [hydrochloride crystal form C, N-(2-(furan-2-yl)-4-((methylamino)methyl)phenyl)thiophene-3-sulfonamide]	5.5%	hygroscopic	98.97 area %	98.92 area %	98.87 area %	99.02 area %	98.9 area %	99 area %	99.02 area %						
CNCc1ccc(NS(=O)(=O)c2ccsc2)c(-c2ccco2)c1 [Malonate crystal form K, N-(2-(furan-2-yl)-4-((methylamino)methyl)phenyl) thiophene-3-sulfonamide]			98.64 area %	98.61 area %	98.59 area %	98.64 area %	98.58 area %	98.46 area %	98.64 area %						
CNCc1ccc(NS(=O)(=O)c2ccsc2)c(-c2ccco2)c1 [malate crystal form F, N-(2-(furan-2-yl)-4-((methylamino)methyl)phenyl)thiophene-3-sulfonamide]	1.4%	slightly hygroscopic	98.72 area %	98.7 area %	98.79 area %	98.74 area %	98.75 area %	98.68 area %	98.72 area %						
CNCc1ccc(NS(=O)(=O)c2ccsc2)c(-c2ccco2)c1 [benzene sulfonate crystal form J, N-(2-(furan-2-yl)-4-((methylamino)methyl)-phenyl)thiophene-3-sulfonamide]			98.87 area %	98.85 area %	98.82 area %	98.87 area %	98.82 area %	98.79 area %	98.87 area %						
CNCc1ccc(NS(=O)(=O)c2ccsc2)c(-c2ccco2)c1 [Phosphate crystal form G, N-(2-(furan-2-yl)-4-((methylamino)methyl)phenyl)thiophene-3-sulfonamide]			98.11 area %	98.09 area %	98.04 area %	98.11 area %	98.06 area %	98.01 area %	98.11 area %						
CNCc1ccc(NS(=O)(=O)c2ccsc2)c(-c2ccco2)c1 [Tartrate crystal form H, N-(2-(furan-2-yl)-4-((methylamino)methyl)phenyl)thiophene-3-sulfonamide]			98.71 area %	98.62 area %	98.6 area %	98.7 area %	98.6 area %	98.53 area %	98.71 area %						
CNCc1ccc(NS(=O)(=O)c2ccsc2)c(-c2ccco2)c1 [Pyroglutamate crystal form I, N-(2-(furan-2-yl)-4-((methylamino)methyl)phenyl)thiophene-3-sulfonamide]			98.61 area %	98.58 area %	98.57 area %	98.61 area %	98.54 area %	98.32 area %	98.61 area %	S>38.0 mg/mL					
CNCc1ccc(NS(=O)(=O)c2ccsc2)c(-c2ccco2)c1 [succinate crystal form E, N-(2-(furan-2-yl)-4-((methylamino)methyl)phenyl)thiophene-3-sulfonamide]	0.6%	slightly hygroscopic	98.92 area %	98.86 area %	98.94 area %	98.92 area %	98.72 area %	98.98 area %	98.82 area %						
CNCc1ccc(NS(=O)(=O)c2ccsc2)c(-c2ccco2)c1 [fumarate crystal form B, N-(2-(furan-2-yl)-4-((methylamino)methyl)phenyl)thiophene-3-sulfonamide]	0.2%	slightly hygroscopic	98.53 area %	98.47 area %	98.57 area %	98.4 area %	98.5 area %	98.52 area %	98.55 area %						
CNCc1ccc(NS(=O)(=O)c2ccsc2)c(-c2ccco2)c1 [free crystal form A, N-(2-(furan-2-yl)-4-((methylamino)methyl)phenyl)thiophene-3-sulfonamide]	1.6%	slightly hygroscopic	98.18 area %	98.14 area %	98.1 area %	98.19 area %	98.2 area %	98.13 area %	98.11 area %		negligible dissolution	negligible dissolution	did not decrease significantly	no detectable crystalline phase changes	S<2.0 mg/mL
CNCc1ccc(NS(=O)(=O)c2ccsc2)c(-c2ccco2)c1 [sulfate crystal form D, N-(2-(furan-2-yl)-4-((methylamino)methyl)phenyl)thiophene-3-sulfonamide]	1.3%	slightly hygroscopic	98.74 area %	98.65 area %	98.78 area %	98.76 area %	98.65 area %	98.78 area %	98.77 area %						
